Data: article PMC4790851, “Iminosugars Inhibit Dengue Virus Production via Inhibition of ER Alpha-Glucosidases—Not Glycolipid Processing Enzymes” (PLoS Neglected Tropical Diseases, 2016)

How the values were obtained:
DENV = tested on: DENV; design: method as in PMID 22020302; conditions: BHK-21 (hamster kidney) cell culture model; cited from earlier work
Glucosyltransferase HL60 = target: T1, Glucosyltransferase HL60 (Homo sapiens, UniProt Q16739); assay: In vitro enzyme inhibition; format: biochemical; conditions: glucosyltransferase isolated from HL60 human promyelocytic cell line; read-out: IC50
T1 construct: endogenous in cells; host or cells: HL60
T1 sequence (Q16739 1-394): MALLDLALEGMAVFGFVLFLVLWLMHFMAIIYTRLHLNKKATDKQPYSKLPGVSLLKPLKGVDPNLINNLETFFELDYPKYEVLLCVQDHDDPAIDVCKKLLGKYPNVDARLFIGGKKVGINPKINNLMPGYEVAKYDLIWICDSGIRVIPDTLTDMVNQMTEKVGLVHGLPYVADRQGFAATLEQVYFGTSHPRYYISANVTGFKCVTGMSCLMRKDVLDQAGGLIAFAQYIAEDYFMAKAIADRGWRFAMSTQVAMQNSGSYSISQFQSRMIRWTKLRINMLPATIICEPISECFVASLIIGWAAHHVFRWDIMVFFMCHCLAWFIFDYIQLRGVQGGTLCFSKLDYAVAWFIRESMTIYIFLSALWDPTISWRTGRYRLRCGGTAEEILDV

[1] = target: T2, Human lysosome α-galactosidase (Homo sapiens, UniProt P06280); assay: In vitro enzyme inhibition; format: biochemical; conditions: concentration required to inhibit the enzyme to 50% activity; read-out: IC50
T2 sequence (P06280 32-429): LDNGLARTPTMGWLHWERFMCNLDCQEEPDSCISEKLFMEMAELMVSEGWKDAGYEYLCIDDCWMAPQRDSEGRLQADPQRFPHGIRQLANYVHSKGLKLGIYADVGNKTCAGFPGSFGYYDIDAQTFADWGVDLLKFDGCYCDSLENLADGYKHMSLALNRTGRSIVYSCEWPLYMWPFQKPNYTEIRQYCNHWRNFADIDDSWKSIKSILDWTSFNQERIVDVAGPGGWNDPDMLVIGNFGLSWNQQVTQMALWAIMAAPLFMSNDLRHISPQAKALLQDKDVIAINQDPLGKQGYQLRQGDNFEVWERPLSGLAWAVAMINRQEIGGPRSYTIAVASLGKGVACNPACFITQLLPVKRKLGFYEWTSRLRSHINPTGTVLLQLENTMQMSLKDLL

DENV2 strain 16681 = assay: Infectious virus (plaque assay) and total virus (qRT-PCR for DENV RNA) secreted from infected MDMΦs; format: cell-based, dengue virus serotype 2; conditions: serial dilution, 48 h post-infection, normalized to untreated
Experimental: MDMΦ were infected with DENV2 16681 diluted to a multiplicity of infection (MOI) of 1 in X-VIVO10 without supplements for 90 minutes (20°C, with rocking). Upon removal of virus, fresh MDMΦ growth medium without IL-4 but containing serial dilutions of drug or control was placed on the cells, and cells were incubated for 48 hours (37°C, 5% CO2). For collection of infectious virus, supernatant was harvested and centrifuged for 5 minutes (room temperature, 400 x g) to pellet any cells/debris, and supernatants were aliquoted and stored at -80°C until analysis by plaque assay. […]
Virus titres for samples from human MDMΦ and C6/36 infections were obtained by LLC-MK2 plaque assays as per previous descriptions. […] A second-overlay containing nutrients, low-melting point tissue culture-grade agarose, and neutral red stain [33] was added and allowed to solidify at 20°C before further incubation for 1 day (37°C, 5% CO2) after which plaques were counted by eye. […]
DENV RNA in cell culture supernatants was isolated according to the manufacturer’s protocol for Direct-zol RNA MiniPrep Kit (Zymo Research) and assayed by reverse transcription-real time polymerase chain reaction (qRT-PCR) on an Applied Biosystems 7500 real-time PCR system (Life Technologies). […] Samples were read in technical duplicate and compared to a standard curve generated from high-titer viral RNA isolated from C6/36-grown DENV2. […]

**Q.** With `CCCC(=O)O[C@H]1CN2CC[C@H](O)[C@@H]2[C@@H](O)[C@@H]1O` [Celgosivir, 6-O-butanoyl-castanospermine] as the molecule, how does the “enhancement of antiviral efficacy over castanospermine” value (DENV) read?
**A.** Its value is ~ 100 fold.

**Q.** And the IC50 (Glucosyltransferase HL60)?
**A.** Its IC50 is over 1000 µM.

**Q.** And the IC50 [1]?
**A.** The IC50 was over 1000 µM.

**Q.** What about the “infectious virus and total virus secreted” value (DENV2 strain 16681) of the same molecule?
**A.** The value was “reduces infectious virus (solid lines) and total virus (dashed lines) secreted in a one-to-one ratio”.

**Q.** Which “infectious virus and total virus secreted” value (DENV2 strain 16681) does the source give for `CCCCN1C[C@H](O)[C@@H](O)[C@H](O)[C@H]1CO` [NB-DNJ, N-butyl-DNJ] here?
**A.** Its value is “reduces infectious virus (solid lines) and total virus (dashed lines) secreted in a one-to-one ratio”.

**Q.** Which IC50 [1] does the source give for `CCCCCCCCCN1C[C@H](O)[C@@H](O)[C@@H](O)[C@H]1CO` [NN-DGJ] here?
**A.** Its IC50 is 35.5 µM.
